Results reported in US8530497B2, “Crystalline salts of a potent HCV inhibitor” (Boehringer Ingelheim International GmbH, priority 2010, dated 2013).

Columns and labels:
[1] = Dynamic Vapor Sorption (DVS) moisture gain; type: physicochemical; details: through 85% RH at 25° C.; for hygroscopic properties (DVS): conditions used in the analysis
Experimental: 4. Dynamic Vapor Sorption Dynamic water sorption analyses were performed using Surface Measurement Systems DVS or DVS-HT, or VTI SGA-100 instruments. Sample sizes ranged from 4 mg to 13 mg. Three cycles of water sorption/desorption were run at 25° C. with change of relative humidity from 5-10% increments from 5% to 95%. The criteria for the step were weight change less than or equal to 0.002% or maximum time of 3 hours.

[2] = Intrinsic dissolution rate (Van Kel VK7000 dissolution tester, Wood's die); type: physicochemical; details: for Dissolution Rate: pH 6.8 (20 mM sodium phosphate), 37° C., 100 rpm
Experimental: 6. Dissolution Studies Intrinsic dissolution rates were evaluated using Van Kel VK7000 dissolution tester and 400 mL dissolution bath with a rotation rate of 100 rpm at 37° C. Samples were prepared using approximately 50 mg of API in a 6 mm diameter Wood's die with compression force of 3 kN and 15 seconds dwell time by Carver press. The test was performed in 400 mL of pH 6.8 (20 mM sodium phosphate). Samples were collected at 2, 5, 10, 15, 20, 25, and 30 minutes, and the collected samples were unfiltered or filtered using […] PDVF filter. The concentrations of the drug were determined by HPLC using isocratic Method with fluorescence detection.

In the case of `C=C[C@@H]1C[C@]1(NC(=O)[C@@H]1C[C@@H](Oc2cc(-c3csc(NC(=O)C(C)C)n3)nc3c(Br)c(OC)ccc23)CN1C(=O)[C@@H](NC(=O)OC1CCCC1)C(C)(C)C)C(=O)O` [HEA], the “moisture gain by Dynamic Vapor Sorption” value [1] is reported as < 2.5%, the “hygroscopic properties (DVS)” value [1] is reported as “non-hygroscopic” and the “dissolution rate compared with the sodium salt” value ([2]; pH 6.8) is reported as “comparable to the sodium salt”. The “Dissolution Rate” value [2] was 1.1 µg/min/mL.

With `C=C[C@@H]1C[C@]1(NC(=O)[C@@H]1C[C@@H](Oc2cc(-c3csc(NC(=O)C(C)C)n3)nc3c(Br)c(OC)ccc23)CN1C(=O)[C@@H](NC(=O)OC1CCCC1)C(C)(C)C)C(=O)O` [NA] the “Dissolution Rate” value [2] was 1.3 µg/min/mL.

With `C=C[C@@H]1C[C@]1(NC(=O)[C@@H]1C[C@@H](Oc2cc(-c3csc(NC(=O)C(C)C)n3)nc3c(Br)c(OC)ccc23)CN1C(=O)[C@@H](NC(=O)OC1CCCC1)C(C)(C)C)C(=O)O` [TH] the “moisture gain by Dynamic Vapor Sorption” value [1] was < 4%, the “hygroscopic properties (DVS)” value [1] was “non-hygroscopic or slightly hygroscopic” and the “dissolution rate relative to the sodium salt or HEA” value ([2]; pH 6.8) was > 10 fold. For the same compound, the “Dissolution Rate” value [2] was 64.4 µg/min/mL.
